Laboratory results taken from the supplement of paper PMC10307832.

Legend:
Experiment in all cases: relative viability (nuclei count vs DMSO), 5 days (fraction); higher = more cells survive
4EGI-1 + Trametinib = compound: O=C(O)C(Cc1ccccc1[N+](=O)[O-])=NNc1nc(-c2ccc(Cl)c(Cl)c2)cs1 (mixture of isomers) [4EGI-1] + CC(=O)Nc1cccc(-n2c(=O)n(C3CC3)c(=O)c3c(Nc4ccc(I)cc4F)n(C)c(=O)c(C)c32)c1 [Trametinib] (partner 0.02 µM)
Method in brief: (§1)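 Each reported value is a median over duplicate plates. It expresses relative viability: treated-well nuclei count divided by vehicle-well nuclei count. Lung cancer cell lines in 1536-well plates were dosed by pin tool a day after seeding, alone with one drug or with a fixed anchor-drug dose plus five library-drug doses (not always all listed) in √10 steps, and nuclei were counted after 5 days.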

XMD8-85 + Phenformin = compound: CN1CCN(CC1)C2=CC(=C(C=C2)NC3=NC=C4C(=N3)N(C5=CC=CC=C5C(=O)N4C)C)OC [XMD8-85] + N=C(N)NC(=N)NCCc1ccccc1 [Phenformin] (partner 250 µM)
Method in brief: as §1

4EGI-1 + Decitabine = compound: O=C(O)C(Cc1ccccc1[N+](=O)[O-])=NNc1nc(-c2ccc(Cl)c(Cl)c2)cs1 (mixture of isomers) [4EGI-1] + Nc1ncn([C@H]2C[C@H](O)[C@@H](CO)O2)c(=O)n1 [Decitabine] (partner 2 µM)
Method in brief: as §1

4EGI-1 + Phenformin = compound: O=C(O)C(Cc1ccccc1[N+](=O)[O-])=NNc1nc(-c2ccc(Cl)c(Cl)c2)cs1 (mixture of isomers) [4EGI-1] + N=C(N)NC(=N)NCCc1ccccc1 [Phenformin] (partner 250 µM)
Method in brief: as §1

Question: What does the source list for NCI-H1792?
Answer: relative viability (4EGI-1 + Trametinib; first compound 0.5 µM): 0.524; relative viability (4EGI-1 + Trametinib; first compound 1.581 µM): 0.428; relative viability (4EGI-1 + Trametinib; first compound 5 µM): 0.359; relative viability (4EGI-1 + Trametinib; first compound 15.81 µM): 0.479; relative viability (4EGI-1 + Trametinib; first compound 50 µM): 0.366; relative viability (XMD8-85 + Phenformin; first compound 0.253 µM): 0.268; relative viability (XMD8-85 + Phenformin; first compound 2.53 µM): 0.257; relative viability (XMD8-85 + Phenformin; first compound 8 µM): 0.486; relative viability (4EGI-1 + Decitabine; first compound 0.5 µM): 0.568; relative viability (4EGI-1 + Decitabine; first compound 1.581 µM): 0.715; relative viability (4EGI-1 + Decitabine; first compound 5 µM): 0.6; relative viability (4EGI-1 + Decitabine; first compound 15.81 µM): 0.488; relative viability (4EGI-1 + Decitabine; first compound 50 µM): 0.369; relative viability (4EGI-1 + Phenformin; first compound 0.5 µM): 0.285; relative viability (4EGI-1 + Phenformin; first compound 1.581 µM): 0.462; relative viability (4EGI-1 + Phenformin; first compound 5 µM): 0.41; relative viability (4EGI-1 + Phenformin; first compound 15.81 µM): 0.322; relative viability (4EGI-1 + Phenformin; first compound 50 µM): 0.378
